Values quoted from earlier work, collected in US20060073224A1, “Method of preparing Dioscorea tincture and uses thereof” (Omni Research Technology, priority 2004, published 2006).

Settings: purified crystalline powder

**Q.** For `C[C@@H]1CC[C@@]2(OC1)O[C@H]1C[C@H]3[C@@H]4CC=C5C[C@@H](O)CC[C@]5(C)[C@H]4CC[C@]3(C)[C@H]1[C@@H]2C` [diosgenin], which insolubility in alcohol is on record?
**A.** about 0.2%
